The target in one assay is rabbit platelets (Oryctolagus cuniculus, UniProt G1TEI7). Put plainly: in vitro platelet agglutination inhibition test (PAF-induced). Particulars: rabbit platelet-rich plasma, PAF final concentration 10 ng/ml, 37°C; read-out: PAF-Induced Platelet Aggregation IC50 (converted). The class given is cell-based.
For the next assay, the target named is T1, PAF receptor (Oryctolagus cuniculus, UniProt G1TEI7).
T1 construct: Cell membrane fraction of rabbit platelets was prepared; from tissue; host or cells: rabbit platelets (cell membrane fraction)
Put plainly: Binding test using [3H]-PAF (PAF receptor binding test). Set-up: species or system rabbit. Particulars: rabbit platelet membrane fraction, [3H]-PAF 0.4 nM, 25°C, 60 minutes; read-out: Receptor Binding Inhibition IC50 (converted).

Structures can show the parent of a compound that is named as a salt.

T1 sequence (G1TEI7 1-342): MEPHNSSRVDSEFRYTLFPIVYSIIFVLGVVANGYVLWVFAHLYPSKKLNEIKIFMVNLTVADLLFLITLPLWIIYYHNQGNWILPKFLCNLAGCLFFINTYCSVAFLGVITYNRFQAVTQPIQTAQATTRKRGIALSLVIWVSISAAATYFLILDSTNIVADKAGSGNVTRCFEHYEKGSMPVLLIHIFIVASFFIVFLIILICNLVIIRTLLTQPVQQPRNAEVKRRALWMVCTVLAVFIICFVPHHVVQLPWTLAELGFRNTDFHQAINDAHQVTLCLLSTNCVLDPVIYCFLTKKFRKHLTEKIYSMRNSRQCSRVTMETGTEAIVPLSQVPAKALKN
Chain of rabbit platelets (G1TEI7 1-342): as above
Description for rabbit platelets: To determine the PAF-antagonizing property of the compounds, the PAF-induced agglutination of rabbit platelets in vitro is utilized. To obtain platelet-rich plasma (PRP), venous blood is taken from rabbit auricular vein into a plastic centrifugal tube containing 1.0% sodium citrate solution. The ratio of sodium citrate solution to blood is 1:10. The obtained citrate-containing blood is centrifuged at 70 x g (625 rpm) at room temperature for 20 minutes and the PRP in the upper layer is transferred to another plastic tube. The remaining lower layer is further centrifuged at 1500 x g (2800 rpm) for 10 minutes and the platelet poor plasma (PPP) in the upper layer is recovered. The platelet agglutination is measured by using aggregometer commercially available from Niko Bioscience, Inc. An aliquote of the PRP is poured into a cubette for measurement. Immediately thereafter, aspirin, creatinin phosphate and creatinin phosphokinase are added to final concentrations of 0.1 mM, 7 mM and 45 U/ml, respectively. Then a solution of a test compound is added and the resulting mixture is stirred at 37°C for 2 minutes. To the resultant, PAF (final concentration: 10 ng/ml) is added to induce platelet aggregation. The platelet aggregation rate is calculated from the relative maximum value in each aggregation curve taking the transmittance of PPP as the maximum aggregation (100% aggregation). Using the aggregation rate when physiological saline was added as a control, the inhibition rate which was the ratio of the aggregation rate when the test compound was added to the control was calculated and the IC50 values were determined by interpolation.

Take `COc1cccc(C(=C2CCN(CCCN3Cc4nnc(C)n4-c4ccccc43)CC2)c2cccc(OC)c2)c1` [Compound 143, 4,5-dihydro-1-methyl-5-[3-[4-[bis(3-methoxyphenyl)methylene]piperidin-1-yl]propyl] [1,2,4]triazolo[4,3,a]quinoxaline]: the results for the IC50 at rabbit platelets and at PAF receptor were 0.411 µM and 0.0747 µM, respectively.

Take `Cc1nnc2n(CCCN3CCC(c4c[nH]c5ccccc45)CC3)c3cc(Cl)ccc3n12` [Compound 205, 3-methyl-7-chloro-9-[3-[4-(3-indolyl)piperidin-1-yl]propyl]-9H-[1,2,4]triazolo[4,3-a]benzimidazole]: the values for the IC50 at rabbit platelets and at PAF receptor were 5.15 µM and 2.91 µM, respectively.

Regarding `Cc1nnc2n1-c1ccccc1N(CCCN1CCC(C(O)(c3ccccc3)c3ccc(N(C)C)cc3)CC1)C2` (centres unmarked) [Compound 131], the IC50 on rabbit platelets was 0.242 µM; on PAF receptor, 0.0838 µM.

As to `CCn1cc(C2CCN(CCCN3Cc4nnc(C)n4-c4ccccc43)CC2)c2ccccc21` [Compound 64, 4,5-dihydro-1-methyl-5-[3-[4-(1-ethyl-3-indolyl)piperidin-1-yl]propyl][1,2,4]triazolo[4,3-a] quinoxaline fumaric acid salt], the IC50 at rabbit platelets was 2.8 µM; on PAF receptor, 0.806 µM.

On to `Cc1nnc2n1-c1ccccc1N(CCCN1CCC(C(O)(c3cccs3)c3cccs3)CC1)C2` [Compound 127], for which the IC50 at rabbit platelets is 0.455 µM; at PAF receptor it was 0.152 µM.

Take `COc1ccccc1N1CCN(CCCN2Cc3nnc(C)n3-c3ccccc32)CC1` [Compound 86, 4,5-dihydro-1-methyl-5-[3-[4-(2-methoxyphenyl)piperazin-1-yl]propyl][1,2,4]triazolo[4,3-a] quinoxaline]: the IC50 at rabbit platelets is 5.26 µM; on PAF receptor it was 7.17 µM.

For `COc1cccc(C(O)(c2cccc(OC)c2)C2CCN(CCCN3Cc4nnc(C)n4-c4ccccc43)CC2)c1` [Compound 135, 4,5-dihydro-1-methyl-5-[3-[4-[hydroxybis(3-methoxyphenyl)methyl]piperidin-1-yl]propyl] [1,2,4]triazolo[4,3-a]quinoxaline], the figures for the IC50 at rabbit platelets and on PAF receptor were 1.59 µM and 0.0379 µM, respectively.

`Cc1nnc2n1-c1ccccc1N(CCCN1CCC(=C(c3cccs3)c3cccs3)CC1)C2` [Compound 165, 4,5-dihydro-1-methyl-5-[3-[4-[bis(2-thienyl)methylene]piperidin-1-yl]propyl] [1,2,4]triazolo[4,3,a]quinoxaline]: the IC50 was 1.52 µM at rabbit platelets and 0.82 µM at PAF receptor.

Regarding `Cc1cccc(C(O)(c2ccccc2)C2CCN(CCCN3Cc4nnc(C)n4-c4ccccc43)CC2)c1` (centres unmarked) [Compound 132, 4,5-dihydro-1-methyl-5-[3-[4-[hydroxyphenyl(3-tolyl)methyl]piperidin-1-yl]propyl] [1,2,4]triazolo[4,3-a]quinoxaline], the IC50 is 0.0709 µM at rabbit platelets and 0.0512 µM on PAF receptor.

As to `Cc1nnc2n1-c1ccccc1N(CCCN1CCC(=C(c3ccco3)c3ccco3)CC1)C2` [Compound 161, 4,5-dihydro-1-methyl-5-[3-[4-[bis(2-furyl)methylene]piperidin-1-yl]propyl] [1,2,4]triazolo[4,3,a]quinoxaline], the IC50 on rabbit platelets was 1.19 µM; at PAF receptor, 0.351 µM.

Regarding `CCCc1nnc2n(CCCN3CCC(c4c[nH]c5ccccc45)CC3)c3ccccc3n12` [Compound 194, 3-propyl-9-[3-[4-(3-indolyl)piperidin-1-yl]propyl]-9H-[1,2,4]triazolo[4,3-a]benzimidazole fumaric acid salt], the IC50 at rabbit platelets is 0.0808 µM; at PAF receptor, 1.98 µM.

With `Cc1nnc2n1-c1ccccc1N(CCCN1CCC(=C3c4ccccc4COc4ccccc43)CC1)C2` [Compound 88, 4,5-dihydro-1-methyl-5-[3-[4-(6,11-dihydrodibenzo[b.e]oxepin-11-ylidene)piperidin-1-yl]propyl][1,2,4]triazolo[4,3-a] quinoxaline], the IC50 on rabbit platelets was 1.71 µM; on PAF receptor, 0.675 µM.

Take `Cc1nnc2n1-c1ccccc1N(CCCN1CCC(=C(c3ccccc3)c3cccs3)CC1)C2` [Compound 164, 4,5-dihydro-1-methyl-5-[3-[4-[phenyl(2-thienyl)methylene]piperidin-1-yl]propyl] [1,2,4]triazolo[4,3,a]quinoxaline]: the figures for the IC50 at rabbit platelets and on PAF receptor were 0.747 µM and 0.249 µM, respectively.

In the case of `Cc1nnc2n1-c1ccccc1N(CCCN1CCC(C(=O)c3ccccc3)CC1)C2` [Compound 128, 4,5-dihydro-1-methyl-5-[3-(4-benzoylpiperidin-1-yl)propyl] [1,2,4]triazolo[4,3-a]quinoxaline], the values for the IC50 on rabbit platelets and at PAF receptor were 4.09 µM and 1.52 µM, respectively.

For `Cc1nnc2n(CCCN3CCC(OC(c4ccccc4)c4ccccc4)CC3)c3ccccc3n12` [Compound 200, 3-methyl-9-[3-[4-(diphenylmethoxy)piperidin-1-yl]propyl]-9H-[1,2,4]triazolo[4,3-a]benzimidazole fumaric acid salt], the IC50 was 0.0386 µM at rabbit platelets and 0.0504 µM on PAF receptor.

Take `COc1ccc(C(=C2CCN(CCCN3Cc4nnc(C)n4-c4ccccc43)CC2)c2ccccc2)cc1OC` [Compound 142, 4,5-dihydro-1-methyl-5-[3-[4-[(3,4-dimethoxyphenyl)phenylmethylene]piperidin-1-yl]propyl] [1,2,4]triazolo[4,3,a]quinoxaline]: the IC50 is 0.952 µM at rabbit platelets and 0.162 µM on PAF receptor.

For the compound `Cc1nnc2n(CCCN3CCC(=C(c4ccccc4)c4ccccc4)CC3)c3ccccc3n12` [Compound 201, 3-methyl-9-[3-[4-(diphenylmethylene)piperidin-1-yl]propyl]-9H-[1,2,4]triazolo[4,3-a]benzimidazole fumaric acid salt], the IC50 on rabbit platelets is 0.277 µM; at PAF receptor, 0.294 µM.

`Cc1nnc2n1-c1ccccc1N(CCCN1CCC(C(O)(c3ccc(F)cc3)c3ccc(F)cc3)CC1)C2C` (centres unmarked) [Compound 90, 4,5-dihydro-1,4-dimethyl-5-[3-[4-[hydroxybis(4-fluorophenyl)methyl]piperidin-1-yl]propyl][1,2,4]triazolo[4,3-a] quinoxaline]: the IC50 at rabbit platelets was 1.03 µM; on PAF receptor, 1.82 µM.

`Cc1nnc2n1-c1ccccc1N(CCCN1CCC(=C(c3cccc(Cl)c3)c3cccc(Cl)c3)CC1)C2` [Compound 155, 4,5-dihydro-1-methyl-5-[3-[4-[bis(3-chlorophenyl)methylene]piperidin-1-yl]propyl] [1,2,4]triazolo[4,3,a]quinoxaline]: the IC50 on rabbit platelets is 2.2 µM; at PAF receptor, 0.132 µM.

In the case of `Cc1nnc2n(CCCN3CCC(c4c[nH]c5ccc(F)cc45)CC3)c3ccccc3n12` [Compound 196, 3-methyl-9-[3-[4-(5-fluoro-3-indolyl)piperidin-1-yl]propyl]-9H-[1,2,4]triazolo[4,3-a]benzimidazole], the IC50 is 0.0302 µM on rabbit platelets and 0.557 µM at PAF receptor.

On to `Cc1nnc2n1-c1ccccc1N(CCCN1CCC(=C(c3ccccc3)c3ccc(Cl)cc3)CC1)C2` [Compound 149, 4,5-dihydro-1-methyl-5-[3-[4-[(4-chlorophenyl)phenylmethylene]piperidin-1-yl]propyl] [1,2,4]triazolo[4,3,a]quinoxaline], for which the IC50 was 1.08 µM on rabbit platelets and 0.206 µM at PAF receptor.

Consider `Cc1nnc2n1-c1ccccc1N(CCCN1CCC(=C(c3ccccc3)c3ccc(N(C)C)cc3)CC1)C2` [Compound 156, 4,5-dihydro-1-methyl-5-[3-[4-[(4-dimethylaminophenyl)phenyimethylene]piperidin-1-yl]propyl] [1,2,4]triazolo[4,3,a]quinoxaline], for which the values for the IC50 at rabbit platelets and at PAF receptor were 1.12 µM and 0.0559 µM, respectively.

For `Cc1cccc(C(=C2CCN(CCCN3Cc4nnc(C)n4-c4ccccc43)CC2)c2cccc(C)c2)c1` [Compound 147, 4,5-dihydro-1-methyl-5-[3-[4-[bis(3-tolyl)methylene]piperidin-1-yl]propyl] [1,2,4]triazolo[4,3,a]quinoxaline], the results for the IC50 at rabbit platelets and on PAF receptor were 0.173 µM and 0.0675 µM, respectively.

For `COc1ccc(C(=C2CCN(CCCN3Cc4nnc(C)n4-c4ccccc43)CC2)c2ccc(OC)cc2)cc1` [Compound 148, 4,5-dihydro-1-methyl-5-[3-[4-[bis(4-methoxyphenyl)methylene]piperidin-1-yl]propyl] [1,2,4]triazolo[4,3,a]quinoxaline], the IC50 on rabbit platelets was 0.597 µM; on PAF receptor it was 0.0541 µM.

In the case of `Cc1nnc2n1-c1ccccc1N(CCCN1CCC(=C3c4ccccc4CCc4ccccc43)CC1)C2` [Compound 87, 4,5-dihydro-1-methyl-5-[3-[4-(10,11-dihydro-5H-dibenzo[a,d]cyclohepten-5-ylidene)piperidin-1-yl]propyl][1,2,4]triazolo[4,3-a] quinoxaline], the IC50 is 6.18 µM on rabbit platelets and 0.199 µM on PAF receptor.

Take `Cc1nnc2n1-c1ccccc1N(CCCN1CCC(=C(c3ccccc3)c3cccc(Cl)c3)CC1)C2` [Compound 154, 4,5-dihydro-1-methyl-5-[3-[4-[(3-chlorophenyl)phenylmethylene]piperidin-1-yl]propyl] [1,2,4]triazolo[4,3,a]quinoxaline]: the IC50 was 0.372 µM at rabbit platelets and 0.178 µM at PAF receptor.

With `Cc1cccc(C(=C2CCN(CCCN3Cc4nnc(C)n4-c4ccccc43)CC2)c2ccccc2)c1` [Compound 160, 4,5-dihydro-1-methyl-5-[3-[4-[phenyl(3-tolyl)methylene]piperidin-1-yl]propyl] [1,2,4]triazolo[4,3,a]quinoxaline], the IC50 at rabbit platelets was 0.145 µM; at PAF receptor it was 0.198 µM.

On to `COc1ccc(C(O)(c2ccccc2)C2CCN(CCCN3Cc4nnc(C)n4-c4ccccc43)CC2)cc1OC` (centres unmarked) [Compound 130, 4,5-dihydro-1-methyl-5-[3-[4-[hydroxy(3,4-dimethoxyphenyl)phenylmethyl]piperidin-1-yl]propyl] [1,2,4]triazolo[4,3-a]quinoxaline], for which the IC50 is 0.578 µM on rabbit platelets and 0.126 µM on PAF receptor.

(Values after patent publication EP0536419B1, “TRICYCLIC TRIAZOLE DERIVATIVES, PRODUCTION AND USE THEREOF” (TORAY INDUSTRIES, INC., priority 1991, dated 1992).)
